According to patent publication US10239871B2, “Compounds and methods for regulating integrins” (ADHAERE PHARMACEUTICALS, INC., priority 2012, dated 2019):
“Also recorded” adds a separate entry of the source.

Assays:
[1] = test system: RAW 264.7 macrophage cells; experiment: Wound healing assay (macrophage migration); assay type: cell-based, murine; details: LA1 15 μM, M18/2 20 μg/mL, 48 hours
Protocol: Murine RAW 264.7 macrophage cells were grown in DMEM 10% FBS medium in T75 flasks to 70% confluence. The cells were detached by trypsin treatment for 10 minutes at 37° C. and evenly reseeded in 24 well plates and allowed to attain >70% confluency. A scratch was introduced horizontally across the well using 200 µL tip applying even force throughout the etching and holding the tip at approximately an 80 degree angle. The wells were subsequently washed and fresh medium containing various treatment groups was introduced. The wound was imaged using 10× objective. The cells were allowed to grow for 48 hours and the wound was reimaged at the same field after 48 hours. The average extent of wound closure was evaluated by measuring the width of the wound. The area healed was analyzed using ImageJ software and is expressed as percentage healing after 48 hours.
For FIG. 4B, RAW 264.7 cells were plated in 24-well tissue culture plates (2×10^6 cells/well) and allowed to adhere in complete media for 12 hours. […] Images of the cells in culture were obtained immediately prior to (0 hours) and after the completion of the experiment (48 hours) using an inverted phase contrast microscope attached to a video camera.
Representative data shown here are from a triplicate well experiment from one of at least two to three independent experiments. **p<0.001, ***p<0.0001.

[2] = test system: CD11b+ macrophages in injured arteries; experiment: Flow cytometric quantitation of arterial macrophages in injured arteries; assay type: in vivo, rat; details: 7 days after balloon injury; LA1 1 mg/kg/d; ED7 1 and 3.3 mg/kg/d
Protocol: Agonist treated and control balloon-injured Fisher 344 rats were sacrificed 7 days post surgery at the onset of inflammation. The injured and non-injured iliac arteries were microdissected and digested with Collagenase/Elastase mix (Worthington Biochemical, NY) in DMEM containing 2% FBS for 2 hours at 37° C. The resulting single cell suspension was washed with cold PBS containing 2% FBS and filtered through […] sieve. Cells were re-suspended cold PBS containing 2% FBS at a concentration of 10^6 cells per 100 μl and stained with biotinylated anti-rat CD11b antibody (clone WT.5, BD Biosciences) for 1 hour at 4° C. […] Cells were washed twice with the assay buffer and analyzed using FACS II Canto cytometer and the data were analyzed using FlowJo (Tree Star Inc.) software. […]
Next, to determine whether either type of agonist (chemical LA1 and biologic activating antibody) has a therapeutic advantage over the other, a head-to-head comparison was performed using this in vivo model. […] Next, the arteries were analyzed to quantify the number of infiltrated macrophages in the presence of agonists LA1 or ED7 and compared it to vehicle treated animals. The arteries were harvested from animals 7 days after balloon injury and single cell suspensions were analyzed by flow cytometry (using anti-rat CD11b antibody WT.5) to quantitate CD11b+ macrophages in each sample. […]

Syk = experiment: Western blot analysis of Syk phosphorylation in leukocytes; assay type: cell-based; details: leukocytes incubated 0-60 minutes
Text: TLR4-mediated signaling requires participation of the adaptor protein MyD88 (43) and MyD88−/− mice are protected from kidney damage following IRI. TLR4 activation leads to the binding and stabilization of adaptor protein MyD88, which recruits downstream kinases to initiate Nf-kB-mediated pro-inflammatory signaling. Subsequently, TLR4 signaling induces a negative feedback loop by endogenous activation of CD11b/CD18, which activates Syk to phosphorylate MyD88, tagging it for ubiquitin-mediated destruction. […] A pilot experiment was carried out to validate this hypothesis by determining the levels of MyD88 in human monocytic THP-1 cells. […] This supports the statements that leukadherins mediated priming of integrins for activation negatively regulates intracellular signaling, including the inflammatory NF-kB signaling.

[3] = test system: allograft transplantation; experiment: Allograft transplantation model (kidney); assay type: in vivo; details: co-treatment with cyclosporine
[4] = LA1 concentration in mouse blood after PO and IP dosing (LC-MS); assay type: in vivo; details: 10 mg/kg, mice
T-cell proliferation = experiment: Mixed lymphocyte reaction (MLR); assay type: cell-based
[5] = Solubility of LA1 in oral vehicle formulations and simulated biological fluids (LC-MS); assay type: physicochemical
Protocol: Pilot oral vehicle evaluation. […] Subsequently, re-dispersability of LA1 was tested using two simulated biological fluids—simulated gastric fluid (SGF) and Fasted State Simulated […] Fluid (FaSSIF).

**Q.** For `O=C(O)c1ccc(-c2ccc(/C=C3\SC(=S)N(Cc4ccccc4)C3=O)o2)cc1` [LA1], which “migration of LPS- or PMA-stimulated macrophages” value [1] is on record?
**A.** significantly, and to a similar extent, reduced the migration

**Q.** What about the “migration of macrophages into the wound area, agonist alone” value ([1]; vs DMSO) of the same molecule?
**A.** no significant increase in the migration of macrophages

**Q.** And the “CD11b+ macrophages in injured arteries vs vehicle” value [2]?
**A.** significantly less CD11b/CD18 macrophages

**Q.** What about the “Syk phosphorylation (pSyk)” value (Syk) of the same molecule?
**A.** induction of Syk phosphorylation; also recorded: induces Syk phosphorylation

**Q.** What about the “engraftment of the donated kidney” value [3] of the same molecule?
**A.** much better engraftment

**Q.** And the bioavailability [4]?
**A.** bioavailable

**Q.** What about the “concentration of LA1 in plasma” value [4] of the same molecule?
**A.** high concentrations

**Q.** What about the levels in blood [4] of the same molecule?
**A.** micromolar levels

**Q.** What about the mean residence time [4] of the same molecule?
**A.** at least a few hours

**Q.** What about the T-cell proliferation (T-cell proliferation) of the same molecule?
**A.** dose-dependently reduces T-cell proliferation

**Q.** What about the “solubility in vehicle formulation” value ([5]; 10% Tween80, 20% ETPGS and 30% Captisol, 10 mg/mL slurry, Mg-salt) of the same molecule?
**A.** 3 to 4 mg/mL

**Q.** What about the “solubility on re-dispersion in simulated biological fluids” value ([5]; SGF and FaSSIF, 10% Tween80 formulation) of the same molecule?
**A.** ~0.15 mg/mL
